What all share (format): cell-based
The subject of test [1] is T47D (PI3Kα H1047R mutant) cells. Briefly: Inhibition of pAKT formation, alphaLISA SureFire Ultra AKT 1/2/3 (pS473), T47D cells. The note with it: Homo sapiens, T47D, T47D (PI3Kα H1047R mutant) cells; inhibition of pAKT (pS473) formation; approximately one hour or 24 hours treatment; read-out: T47D pAKT (H1047R mutant) IC50. The method, boiled down:
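T47D cells (12,000/well) in HBSS were dosed with compound at 10 concentrations (10.4 μM top, 1:4 dilutions) for about 1 h or 24 h at 37 °C, then lysed. pS473 AKT was read by alphaLISA. Signals were normalized to alpelisib and DMSO controls, and IC50 came from a four-parameter fit.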
A general note: In Alpha technology, singlet oxygen from a donor bead excites a nearby acceptor bead.

Test [2] deals with MKN1 (PI3Kα E545K mutant) cells. Description: Inhibition of pAKT formation, alphaLISA SureFire Ultra AKT 1/2/3 (pS473), MKN1 cells. As to conditions: Homo sapiens, MKN-1; MKN1 (PI3Kα E545K mutant) cells; inhibition of pAKT (pS473) formation; approximately one hour or 24 hours treatment; read-out: MKN1 (E545K) pAKT IC50. The method, then:
The ability of a compound of Formula (I) to inhibit the formation of pAKT was measured using alphaLISA Surefire Ultra AKT 1/2/3 (pS473) Assay Kit (#ALSU-PAKT-B50K) was obtained from Perkin Elmer (Waltham, MA).
To prepare assay plates for pAKT alphaLISA assays, cells were trypsinized, resuspended in fresh media, and viable cells were counted utilizing trypan blue exclusion. Prior to seeding, cells were washed with PBS and resuspended in HBSS (Gibco, #14025092). T47D (12,000/w), SKBR3(12,000/w), or MKN1(24,000/w) cells were seeded at 12 μl per well in a solid white flat bottom 384 cell culture plate (Perkin Elmer #6007680).
Immediately after seeding, cells were dosed using an Echo Liquid Handler (Beckman Coulter) with compounds at a […] starting concentration and serially diluted (1:4) for a total of 10 concentrations. […] Cells were incubated with the compounds (solubilized in DMSO) for approximately one hour or 24 hours at 37° C. After one hour (or 24 hours) of treatment, cells were lysed with 3 μl of the 5× lysis buffer (provided and incubated at room temperature for 15 min on a microtiter plate shaker). Once cells were sufficiently lysed, 7.5 μl of the acceptor bead mix (made using the manufacturers recommended dilutions) was added to each well and left on the microtiter plate shaker for 1 min prior to incubating plates at room temperature for one hour, in the absence of light. After one hour of incubation with the acceptor bead mix, 7.5 μl of the donor bead mix (made using the manufacturers recommended dilutions) was added to each well and left on the microtiter plate shaker for 1 min prior to incubating plates at room temperature overnight in the absence of light. Plates were then imaged the following day using a CLARIOstar microplate reader (BMG Labtech, Germany).
Percent of control values were calculated by subtracting the average signal from the positive control (alpelisib) treated wells from all treated wells (including DMSO control wells) and then divided by the average signal from the vehicle DMSO treated control wells. Percent of vehicle control values were plotted as log (inhibitor) vs. response-Variable slope (four parameters) for curve fitting and IC50 values were determined using XLfit.
Key: N.D. =not determined

Test [3] concerns SKBR3 (PI3Kα wild type) cells. Description: Inhibition of pAKT formation, alphaLISA SureFire Ultra AKT 1/2/3 (pS473), SKBR3 cells. As to conditions: Homo sapiens, SK-BR-3; Inhibition of pAKT in SKBR3 (PI3Kα wild type) cells; read-out: SKBR3 (WT) pAKT IC50 (nM) (H1047R mutant) IC50. The method in brief: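 Cells seeded in HBSS (SKBR3 12,000/well, MKN1 24,000/well) and dosed immediately, 10-point 1:4 series from […], for about 1 h or 24 h at 37 °C. pAKT S473 by alphaLISA after lysis; signal normalised to alpelisib and DMSO controls, IC50 by four-parameter fit.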

In test [4] the test system is T47D (PI3Kα H1047R mutant) cells. Briefly: CellTiter-Glo 2.0 luminescent cell viability assay, 72 hours, T47D cells. As to conditions: Homo sapiens, T47D, 72 h, T47D (PI3Kα H1047R mutant) cells, CellTiter-Glo, approximately 72 hours; read-out: T47D (H1047R mutant) Viability IC50. The method in brief:
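Cells seeded at 1000 per well overnight were dosed with a 10-concentration, 1:4 series starting at 10 µM and incubated ~72 h at 37° C. Viability was read by CellTiter-Glo 2.0 luminescence after 30 min at room temperature. IC50 came from four-parameter fits of percent vehicle control.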
Background: ATP-based viability assays read luminescence as a measure of living cells.

Test [5] deals with MKN1 (PI3Kα E545K mutant) cells. Description: CellTiter-Glo 2.0 luminescent cell viability assay, 72 hours, MKN1 cells. The note with it: Homo sapiens, MKN-1; MKN1 (PI3Kα E545K mutant) cells, CellTiter-Glo, approximately 72 hours; read-out: MKN1 (E545K) Viability IC50. The procedure:
This Example illustrates that exemplary compounds of the present invention decrease the viability of cells.
The ability of a compound of Formula (I) to decrease the viability of cells was measured using CellTiter-Glo 2.0 (CTG) Luminescent Cell Viability Assay (#G9241) obtained from Promega (Madison, WI).
To prepare assay plates for viability assays, cells were trypsinized, resuspended in fresh media, and viable cells were counted utilizing trypan blue exclusion. T47D, SKBR3, or MKN1 cells were seeded at 1000 cells in 30 μl per well in a solid white flat bottom 384 cell culture plate (Perkin Elmer #6007680) and incubated at 37° C. overnight.
Assay day 1, cells were dosed using an Echo Liquid Handler (Beckman Coulter) with compounds at a 10 um starting concentration and serially diluted (1:4) for a total of 10 concentrations. Cells were incubated for approximately 72 hours with the compounds (solubilized in DMSO) at 37° C. After 72 hours of treatment, cell plates were equilibrated to room temperature before adding 15 μl of CTG to each well, plates were then covered in aluminum foil to protect from light, incubated at room temperature for 30 minutes on a microtiter plate shaker, and luminescence readings were collected using a CLARIOstar microplate reader (BMG Labtech, Germany). Percent of vehicle control values were plotted as log (inhibitor) vs. response-Variable slope (four parameters) for curve fitting and IC50 values were determined using XLfit.

The subject of test [6] is SKBR3 (PI3Kα wild type) cells. Description: CellTiter-Glo 2.0 luminescent cell viability assay, 72 hours, SKBR3 cells. As to conditions: Homo sapiens, SK-BR-3, 72 h, SKBR3 (PI3Kα wild type) cells, CellTiter-Glo, approximately 72 hours; read-out: SKBR3 (WT) Viability IC50. The method, boiled down:
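Viability measured via CTG luminescence following roughly 72 hours of compound exposure at 37° C. Dosing used a 10 um starting concentration diluted 1:4 over 10 points; percent-of-vehicle data fitted with a variable-slope four-parameter model for IC50.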

Bounds are passed on as bounds.

In patent publication US20260078120A1, “SUBSTITUTED PYRIDOPYRIMIDINONES” (MIRATI THERAPEUTICS, INC., priority 2022, published 2026) one finds IC50 data, which are given here for twelve molecules.

Regarding `Cc1cc(C(C)Nc2ccccc2C(=O)O)c2nc(C3CC3)cc(=O)n2c1` (stereo not drawn) [6-2, 2-((1-(2-cyclopropyl-7-methyl-4-oxo-4H-pyrido[1,2-a]pyrimidin-9-yl)ethyl)amino)benzoic acid], the IC50 (commonly the midpoint of a concentration-inhibition curve) in test [1] was 0.0932 µM; in test [2], more than 10 µM; in test [3] it was more than 10000 nM; in test [4], more than 10 µM; in test [5], more than 10 µM; in test [6] it was more than 10 µM.

With `CC(Nc1ccccc1C(=O)O)c1cccn2c(=O)cc(N3Cc4ccccc4C3)nc12` (stereo not drawn) [9-4, 2-((1-(2-(isoindolin-2-yl)-4-oxo-4H-pyrido[1,2-a]pyrimidin-9-yl)ethyl)amino)benzoic acid], the IC50 in test [1] was 0.0259 µM; in test [2], more than 10 µM; in test [3], more than 10000 nM; in test [4], 9.97 µM; in test [5] it was more than 10 µM; in test [6], more than 10 µM.

With `Cc1cc(C(C)Nc2ccccc2)c2nc(N3CCCCC3)cc(=O)n2c1` (stereo not drawn) [Example 1, 7-methyl-9-(1-(phenylamino)ethyl)-2-(piperidin-1-yl)-4H-pyrido[1,2-a]pyrimidin-4-one], the IC50 was more than 10 µM in test [1]; more than 10 µM in test [2]; more than 10000 nM in test [3]; more than 10 µM in test [4]; more than 10 µM in test [5]; more than 10 µM in test [6].

As for `COc1cccc(NC(C)c2cc(C)cn3c(=O)cc(N4CCCCC4)nc23)c1C(=O)O` (stereo not drawn) [Example 3-3, 2-methoxy-6-((1-(7-methyl-4-oxo-2-(piperidin-1-yl)-4H-pyrido[1,2-a]pyrimidin-9-yl)ethyl)amino)benzoic acid], the IC50 in test [1] is 2.73 µM; in test [2] it was more than 10 µM; in test [3], more than 10000 nM; in test [4] it was more than 10 µM; in test [5], more than 10 µM; in test [6], more than 10 µM.

For the molecule `COc1ccc(NC(C)c2cc(C)cn3c(=O)cc(N4CCCCC4)nc23)c(C(=O)O)c1` (stereo not drawn) [Example 3-5, 5-methoxy-2-((1-(7-methyl-4-oxo-2-(piperidin-1-yl)-4H-pyrido[1,2-a]pyrimidin-9-yl)ethyl)amino)benzoic acid], the IC50 in test [1] is 1.8 µM; in test [2] it was more than 10 µM; in test [3], more than 10000 nM; in test [4], more than 10 µM; in test [5] it was more than 10 µM; in test [6], more than 10 µM.

In the case of `Cc1cc(C(C)Nc2ccc(O)cc2C(=O)O)c2nc(N3CCCCC3)cc(=O)n2c1` (stereo not drawn) [Example 3-6, 5-hydroxy-2-((1-(7-methyl-4-oxo-2-(piperidin-1-yl)-4H-pyrido[1,2-a]pyrimidin-9-yl)ethyl)amino)benzoic acid], the IC50 in test [1] was more than 10 µM; in test [2], more than 10 µM; in test [3], 2670 nM; in test [4], more than 10 µM; in test [5] it was more than 10 µM; in test [6] it was more than 10 µM.

For `COc1ccc(C(=O)O)c(NC(C)c2cc(C)cn3c(=O)cc(N4CCCCC4)nc23)c1` (stereo not drawn) [Example 3-7, 4-methoxy-2-((1-(7-methyl-4-oxo-2-(piperidin-1-yl)-4H-pyrido[1,2-a]pyrimidin-9-yl)ethyl)amino)benzoic acid], the IC50 in test [1] is more than 10 µM; in test [2], more than 10 µM; in test [3] it was 8030 nM; in test [4] it was more than 10 µM; in test [5], more than 10 µM; in test [6] it was more than 10 µM.

Take `Cc1cc(C(C)Nc2cc(O)ccc2C(=O)O)c2nc(N3CCCCC3)cc(=O)n2c1` (stereo not drawn) [Example 3-8, 4-hydroxy-2-((1-(7-methyl-4-oxo-2-(piperidin-1-yl)-4H-pyrido[1,2-a]pyrimidin-9-yl)ethyl)amino)benzoic acid]: the IC50 in test [1] was 3 µM; in test [2] it was more than 10 µM; in test [3], more than 10000 nM; in test [4] it was more than 10 µM; in test [5] it was more than 10 µM; in test [6] it was more than 10 µM.

On to `Cc1cc(C(C)Oc2ccccc2C(=O)O)c2nc(N3CCCCC3)cc(=O)n2c1` (stereo not drawn) [Example 3-9, 2-(1-(7-methyl-4-oxo-2-(piperidin-1-yl)-4H-pyrido[1,2-a]pyrimidin-9-yl)ethoxy)benzoic acid], for which the IC50 was more than 10 µM in test [1]; more than 10 µM in test [2]; 583 nM in test [3]; more than 10 µM in test [4]; more than 10 µM in test [5]; more than 10 µM in test [6].

In the case of `Cc1cc(C(C)Nc2ccccc2C#N)c2nc(N3CCCCC3)cc(=O)n2c1` (stereo not drawn) [Example 3-11, 2-((1-(7-methyl-4-oxo-2-(piperidin-1-yl)-4H-pyrido[1,2-a]pyrimidin-9-yl)ethyl)amino)benzonitrile], the IC50 in test [1] is more than 10 µM; in test [2] it was more than 10 µM; in test [3], more than 10000 nM; in test [4], more than 10 µM; in test [5], more than 10 µM; in test [6], more than 10 µM.

As for `COC(=O)c1ccccc1NC(C)c1cc(C)cn2c(=O)cc(N3CCCCC3)nc12` (stereo not drawn) [Example 3-12, methyl 2-((1-(7-methyl-4-oxo-2-(piperidin-1-yl)-4H-pyrido[1,2-a]pyrimidin-9-yl)ethyl)amino)benzoate], the IC50 was 1.97 µM in test [1]; more than 10 µM in test [2]; 44.3 nM in test [3]; 5.76 µM in test [4]; more than 10 µM in test [5]; more than 10 µM in test [6].

As to `Cc1cc(C(C)Nc2ccccc2C(N)=O)c2nc(N3CCCCC3)cc(=O)n2c1` (stereo not drawn) [Example 3-13, 2-((1-(7-methyl-4-oxo-2-(piperidin-1-yl)-4H-pyrido[1,2-a]pyrimidin-9-yl)ethyl)amino)benzamide], the 50% inhibitory concentration (IC50) in test [1] is 1.06 µM; in test [2], 3.99 µM; in test [3] it was more than 10000 nM; in test [4], more than 10 µM; in test [5] it was more than 10 µM; in test [6], more than 10 µM.
